Where a name gives a salt, the structure may show the parent alone.
Test system: isolated pulmonary vessel
Assay: Relaxant activity on blood vessels isolated from guinea pigs (pulmonary artery)
Conditions: Cavia porcellus; guinea pig pulmonary artery, K+ depolarised, Ca2+ contraction; read-out: IC50 (relaxation of 50%)
Description: Determination of the relaxant activity of the compounds according to the invention on blood vessels isolated from guinea pigs.
The pulmonary artery of male guinea pigs (350-500 g) is isolated and cut into spiral tracts (1 mm wide, 15 mm long). […] After having removed the calcium from the tissues (Tyrode without calcium and 0.2 mM EDTA), the tracts are depolarised in the presence of a concentrated solution of K^+ ions (40 mM), which is produced by replacing the NaCl by equimolar amounts of KCl, and a contraction of long duration is then induced by Ca^2+ ions (0.5 mM).
The compounds studied are then introduced into the organ cell in increasing concentrations.
Each compound is tested on at least four vessel spiral tracts.

Compound	IC50 [µM]
O=C(CNC(=O)[C@@H]1CSCN1)N[C@H]1CO[C@H]2[C@@H]1OC[C@@H]2O[N+](=O)[O-] [Compound 46, 5-[[2-[[(4-L-Thiazolidinyl)carbonyl]amino]-1oxoethyl]amino]-5-deoxy-2-O-nitro-1,4:3,6-dianhydro-L-iditol monohydrochloride]	38
O=[N+]([O-])O[C@@H]1CO[C@H]2[C@@H]1OC[C@@H]2O [IS-5-MN, isosorbide 5-mononitrate, reference compound]	> 100
